Reference: patent publication US20250171437A1 (Agios Pharmaceuticals,Inc., priority 2022, published 2025)

Biological target: T1, human PAH with the R408W mutation (A375 R408W cells) (Homo sapiens, UniProt P00439, R408W)
T1 construct: expressed in transfected cells
T1 sequence (P00439 1-452 R408W): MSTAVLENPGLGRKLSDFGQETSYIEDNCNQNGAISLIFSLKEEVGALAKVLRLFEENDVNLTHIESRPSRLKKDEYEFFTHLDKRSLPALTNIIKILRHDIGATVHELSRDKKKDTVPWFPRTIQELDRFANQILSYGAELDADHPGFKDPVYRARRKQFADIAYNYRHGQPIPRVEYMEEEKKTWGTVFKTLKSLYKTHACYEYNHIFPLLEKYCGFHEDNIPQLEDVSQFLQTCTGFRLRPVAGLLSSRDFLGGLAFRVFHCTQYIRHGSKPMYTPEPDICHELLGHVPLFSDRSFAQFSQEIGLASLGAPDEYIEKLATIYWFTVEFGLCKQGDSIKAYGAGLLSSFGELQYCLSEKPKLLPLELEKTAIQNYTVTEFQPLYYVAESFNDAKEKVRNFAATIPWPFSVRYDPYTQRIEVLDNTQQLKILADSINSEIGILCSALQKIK
Experiment: Cell Based Phenylalanine Flux Assay
Conditions: 24 hrs with compound, then 20 μM sepiapterin and 800 μM 13C9,15N-Phenylalanine for 4 hours, 13C-Tyrosine by LC-MS, average where tested multiple times
In short: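 AC50 is derived from LC-MS of 13C-tyrosine in the media after a 4 h pulse of 800 μM 13C9,15N-phenylalanine plus 20 μM sepiapterin. The A375 R408W PAH cells had received duplicate 10-point, 2-fold compound dilutions (0.5% DMSO) for 24 h beforehand.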

[1] = A375 cells expressing R408W PAH

Compound | AC50 (A375 R408W cells) [nM] | AC50 [1] [nM]
Cn1nc(C2CC2)nc1C(=O)N1CCc2[nH]cnc2[C@H]1c1nc2cccc(F)c2o1 [Example 497, (S)-(3-cyclopropyl-1-methyl-1H-1,2,4-triazol-5-yl)(4-(7-fluorobenzo[d]oxazol-2-yl)-6,7-dihydro-1H-imidazo[4,5-c]pyridin-5(4H)-yl)methanone] | 1000 to 5000 | 
Cc1ccc2nc(C3c4nc[nH]c4CCN3C(=O)c3cnn4cc(CN(C)C)ccc34)oc2c1 (centres unmarked) |  | ≥ 5000
CC(C)(O)c1nc(C(F)F)c(C(=O)N2CCc3[nH]cnc3[C@H]2c2nc3cc(OC(F)(F)F)ccc3o2)o1 [Example 351, (S)-(4-(difluoromethyl)-2-(2-hydroxypropan-2-yl)oxazol-5-yl)(4-(5-(trifluoromethoxy)benzo[d]oxazol-2-yl)-6,7-dihydro-1H-imidazo[4,5-c]pyridin-5(4H)-yl)methanone] | ≤ 500 | 
O=C(CCc1nccs1)N1CCc2[nH]cnc2[C@H]1c1nc2cccc(F)c2o1 [Example 385, 1-[(4S)-4-(7-fluoro-1,3-benzoxazol-2-yl)-1,4,6,7-tetrahydroimidazo[4,5-c]pyridin-5-yl]-3-thiazol-2-yl-propan-1-one] | ≤ 500 | 
Cc1ncoc1C(=O)N1CCc2[nH]cnc2[C@H]1c1nc2c(F)cccc2o1 [Example 599, (S)-(4-(4-fluorobenzo[d]oxazol-2-yl)-6,7-dihydro-1H-imidazo[4,5-c]pyridin-5(4H)-yl)(4-methyloxazol-5-yl)methanone] | ≤ 500 | 
Cc1ccc2nc(C3c4nc[nH]c4CCN3C(=O)c3nnc(C)o3)oc2c1 (centres unmarked) |  | ≥ 5000
Cn1nc(C(C)(C)C)cc1C(=O)N1CCc2[nH]cnc2C1c1nc2ccccc2o1 (centres unmarked) |  | ≥ 5000
CC(F)(F)c1ncc(C(=O)N2CCc3[nH]cnc3[C@H]2c2nc3cc(F)ccc3o2)s1 [Example 35, (S)-(2-(1,1-difluoroethyl)thiazol-5-yl)(4-(5-fluorobenzo[d]oxazol-2-yl)-6,7-dihydro-1H-imidazo[4,5-c]pyridin-5(4H)-yl)methanone] | 500 to 1000 | 
CN(C)C(C)(C)c1nc(C(F)F)c(C(=O)N2CCc3[nH]cnc3[C@H]2c2nc3cc(F)ccc3o2)o1 [Example 291, (S)-(4-(difluoromethyl)-2-(2-(dimethylamino)propan-2-yl)oxazol-5-yl)(4-(5-fluorobenzo[d]oxazol-2-yl)-6,7-dihydro-1H-imidazo[4,5-c]pyridin-5(4H)-yl)methanone] | ≤ 500 | 
O=C(c1cnco1)N1CCc2[nH]cnc2[C@@H]1c1nc2ccccc2o1 [Example 548, (R)-(4-(benzo[d]oxazol-2-yl)-6,7-dihydro-1H-imidazo[4,5-c]pyridin-5(4H)-yl)(oxazol-5-yl)methanone] | 1000 to 5000 | 
O=C([C@@H]1CC1(F)F)N1CCc2[nH]cnc2[C@@H]1c1nc2cc(F)ccc2o1 [Example 62, ((S)-2,2-difluorocyclopropyl)((R)-4-(5-fluorobenzo[d]oxazol-2-yl)-6,7-dihydro-1H-imidazo[4,5-c]pyridin-5(4H)-yl)methanone] | 1000 to 5000 | 
[2H][C@@]1(c2nc3cccc(F)c3o2)c2nc[nH]c2CCN1C(=O)c1ocnc1C(F)F [Example 899, (S)-(4-(difluoromethyl)oxazol-5-yl)(4-deuterium-4-(7-fluorobenzo[d]oxazol-2-yl)-6,7-dihydro-1H-imidazo[4,5-c]pyridin-5(4H)-yl)methanone] | ≤ 500 | 
Cc1ccc2oc([C@H]3c4nc[nH]c4CCN3C(=O)c3ncnn3C)nc2c1 [Example 746, (R)-(1-methyl-1H-1,2,4-triazol-5-yl)(4-(5-methylbenzo[d]oxazol-2-yl)-6,7-dihydro-1H-imidazo[4,5-c]pyridin-5(4H)-yl)methanone] | 1000 to 5000 | 
Cc1nc(-c2cnn(C)c2)oc1C(=O)N1CCc2[nH]cnc2[C@@H]1c1nc2cccc(F)c2o1 [Example 595, (R)-(4-(7-fluorobenzo[d]oxazol-2-yl)-6,7-dihydro-1H-imidazo[4,5-c]pyridin-5(4H)-yl)(4-methyl-2-(1-methyl-1H-pyrazol-4-yl)oxazol-5-yl)methanone] | 1000 to 5000 | 
Cc1ccc2nc(C3c4nc[nH]c4CCN3C(=O)c3cnco3)oc2c1 (centres unmarked) |  | ≥ 5000
O=C(c1cnco1)N1CCc2[nH]cnc2[C@@H]1c1nc2cc(F)cc(F)c2o1 [Example 576, (R)-(4-(5,7-difluorobenzo[d]oxazol-2-yl)-6,7-dihydro-1H-imidazo[4,5-c]pyridin-5(4H)-yl)(oxazol-5-yl)methanone] | 1000 to 5000 | 
O=C(c1nnc(-c2cnn(CC(F)(F)F)c2)o1)N1CCc2[nH]cnc2C1c1nc2cc(F)ccc2o1 (centres unmarked) |  | 1000 to 5000
O=C(c1oc(C2(O)CCC2)nc1C(F)(F)F)N1CCc2[nH]cnc2[C@H]1c1nc2cc(F)ccc2o1 [Example 585, (S)-(4-(5-fluorobenzo[d]oxazol-2-yl)-6,7-dihydro-1H-imidazo[4,5-c]pyridin-5(4H)-yl)(2-(1-hydroxycyclobutyl)-4-(trifluoromethyl)oxazol-5-yl)methanone] | ≤ 500 | 
Cn1cc(-c2nc(C(F)(F)F)c(C(=O)N3CCc4[nH]cnc4[C@@H]3c3nc4cccc(F)c4o3)o2)cn1 [Example 670, (R)-(4-(7-fluorobenzo[d]oxazol-2-yl)-6,7-dihydro-1H-imidazo[4,5-c]pyridin-5(4H)-yl)(2-(1-methyl-1H-pyrazol-4-yl)-4-(trifluoromethyl)oxazol-5-yl)methanone] | ≤ 500 | 
O=C(c1cnn2cc(F)c(Cl)cc12)N1CCc2[nH]cnc2[C@H]1c1nc2cc(F)ccc2o1 [Example 219, (S)-(5-chloro-6-fluoropyrazolo[1,5-a]pyridin-3-yl)(4-(5-fluorobenzo[d]oxazol-2-yl)-6,7-dihydro-1H-imidazo[4,5-c]pyridin-5(4H)-yl)methanone] | ≤ 500 | 
CC(C)(O)c1cc(C(=O)N2CCc3[nH]cnc3C2c2nc3c(F)cccc3o2)on1 (centres unmarked) |  | 1000 to 5000
Cn1cc(-c2nnc(C(=O)N3CCc4[nH]cnc4C3c3nc4ccc(F)cc4o3)o2)cn1 (centres unmarked) |  | 1000 to 5000
Cc1nc([C@H](C)O)oc1C(=O)N1CCc2[nH]cnc2C1c1nc2cc(F)ccc2o1 (single isomer, unassigned) |  | 1000 to 5000
c1ccc2oc([C@H]3c4nc[nH]c4CN3c3nc4ccccc4o3)nc2c1 (single isomer, unassigned) [Example 932] | 1000 to 5000 | 
Cn1cc(-c2ncc(C(=O)N3CCc4[nH]cnc4C3c3nc4cc(F)ccc4o3)o2)cn1 (centres unmarked) |  | ≥ 5000
Cc1cnn(C)c1-c1nnc(C(=O)N2CCc3[nH]cnc3[C@H]2c2nc3cc(F)ccc3o2)o1 [Example 119, (S)-(5-(1,4-dimethyl-1H-pyrazol-5-yl)-1,3,4-oxadiazol-2-yl)(4-(5-fluorobenzo[d]oxazol-2-yl)-6,7-dihydro-1H-imidazo[4,5-c]pyridin-5(4H)-yl)methanone] | 500 to 1000 | 
Cn1nc(C(F)F)nc1C(=O)N1CCc2[nH]cnc2C1c1nc2ccc(F)cc2o1 (centres unmarked) |  | 1000 to 5000
COc1cccc2oc([C@@H]3c4nc[nH]c4CCN3C(=O)c3ncnn3C)nc12 [Example 903, (S)-(4-(4-methoxybenzo[d]oxazol-2-yl)-6,7-dihydro-1H-imidazo[4,5-c]pyridin-5(4H)-yl)(1-methyl-1H-1,2,4-triazol-5-yl)methanone] | 1000 to 5000 | 
O=C(c1cnn2cc(N3CCC4(CC3)CC4)ccc12)N1CCc2[nH]cnc2[C@H]1c1nc2c(F)cccc2o1 [Example 505, (S)-(6-(6-azaspiro[2.5]octan-6-yl)pyrazolo[1,5-a]pyridin-3-yl)(4-(4-fluorobenzo[d]oxazol-2-yl)-6,7-dihydro-1H-imidazo[4,5-c]pyridin-5(4H)-yl)methanone] | 500 to 1000 | 
